Test: Loss of asthma control (LOAC) events, 12-week ICS/LABA withdrawal study
Format: in vivo, human
Conditions: for RD vs. Placebo / LOAC, number / OR vs. placebo: 400 mg BID
From the text: The general construct of this 12-week Loss of Asthma Control (LOAC) study consisted of a 4-week standardized ICS/LABA background therapy stabilization phase, a 4or 5-week background therapy withdrawal phase and a 3- or 4-week no background therapy phase, followed by a 4-week post IMP treatment safety follow-up period at the beginning of which, pre-screening asthma controller medications are restarted. Participants had access to short-acting β-agonist (SABA) reliever medication at all times during the protocol.
The primary endpoint was the proportion of patients with LOAC. The key secondary endpoint for the study was change in pre-bronchodilator FEV1 from baseline at EOT.
The primary endpoint was proportion of participants with LOAC during the 12-week treatment period.
Note that if the number of participants in some regions was too low, these regions may have been pooled with other regions. This strategy also applied to all the rest of the analyses where region was one of the covariates.
To assess the consistency in treatment effects across different subgroup levels, subgroup analyses were to be performed for the primary efficacy endpoint with respect to age group, gender, region, and other factors.
Secondary endpoints included pre-bronchodilator FEV1 change from baseline at EOT, ACQ-5 score change from baseline, and AQLQ score change from baseline. Other secondary and exploratory endpoints are described in Table 2.

[1] = all others than low EOS and low FeNO
[2] = background ICS/LABA dose Medium
[3] = baseline IgA <Median (2600) IU/mL
[4] = baseline IgA ≥Median (2600) IU/mL
[5] = baseline IgE <Median (210.8) IU/mL
[6] = baseline IgE ≥Median (210.8) IU/mL
[7] = baseline percent predicted FEV1 <Median (68)
[8] = baseline percent predicted FEV1 ≥ Median (68)
[9] = baseline pre-BD FEV1 <Median (2.022) L
[10] = baseline pre-BD FEV1 ≥Median (2.022) L
[11] = blood eosinophil level 1 <0.15 (10^9/L)
[12] = blood eosinophil level 1 ≥0.15 (10^9/L)
[13] = blood eosinophil level 2 <0.3 (10^9/L)
[14] = blood eosinophil level 2 ≥0.3 (10^9/L)
[15] = 400 mg TID cohort, Eastern Europe, n = 43
[16] = 400 mg TID cohort, Latin America, n = 19

CC(C)(C=C(C#N)C(=O)N1CCC[C@@H](n2nc(-c3ccc(Oc4ccccc4)cc3F)c3c(N)ncnc32)C1)N1CCN(C2COC2)CC1 (mixture of isomers) [rilzabrutinib, (R)-2-[3-[4-amino-3-(2-fluoro-4-phenoxy-phenyl)pyrazolo[3,4-d]pyrimidin-1-yl]piperidine-1-carbonyl]-4-methyl-4-[4-(oxetan-3-yl)piperazin-1-yl]pent-2-enenitrile]
RD vs. Placebo (age at onset ≥18-<40 years): −0.314
LOAC, number (age at onset ≥18 years): 7
OR vs. placebo (age at onset ≥18 years): 0.323
RD vs. Placebo (age at onset ≥18 years): −0.258
LOAC, number (age at onset ≥40 years): 3
OR vs. placebo (age at onset ≥40 years): 3.000
RD vs. Placebo (age at onset ≥40 years): 0.250
LOAC, number [1]: 12
OR vs. placebo [1]: 0.808
RD vs. Placebo [1]: −0.053
LOAC, number (atopic medical conditions: No): 4
OR vs. placebo (atopic medical conditions: No): 0.380
RD vs. Placebo (atopic medical conditions: No): −0.204
LOAC, number (atopic medical conditions: Yes): 8
OR vs. placebo (atopic medical conditions: Yes): 0.681
RD vs. Placebo (atopic medical conditions: Yes): −0.069
LOAC, number (background ICS/LABA dose High): 11
OR vs. placebo (background ICS/LABA dose High): 0.737
RD vs. Placebo (background ICS/LABA dose High): −0.075
LOAC, number [2]: 1
RD vs. Placebo [2]: −0.467
OR vs. placebo (baseline ACQ-5 >2): 0.475
LOAC, number (baseline ACQ-5 ≤2): 7
OR vs. placebo (baseline ACQ-5 ≤2): 0.651
RD vs. Placebo (baseline ACQ-5 ≤2): −0.098
LOAC, number (baseline FeNO level 1 <25 ppb): 3
OR vs. placebo (baseline FeNO level 1 <25 ppb): 0.261
RD vs. Placebo (baseline FeNO level 1 <25 ppb): −0.227
LOAC, number (baseline FeNO level 1 ≥25 ppb): 9
OR vs. placebo (baseline FeNO level 1 ≥25 ppb): 0.946
RD vs. Placebo (baseline FeNO level 1 ≥25 ppb): −0.007
LOAC, number (baseline FeNO level 2 <35 ppb): 8
OR vs. placebo (baseline FeNO level 2 <35 ppb): 0.448
RD vs. Placebo (baseline FeNO level 2 <35 ppb): −0.198
LOAC, number (baseline FeNO level 2 ≥35 ppb): 4
OR vs. placebo (baseline FeNO level 2 ≥35 ppb): 0.800
RD vs. Placebo (baseline FeNO level 2 ≥35 ppb): −0.053
LOAC, number [3]: 4
OR vs. placebo [3]: 0.205
RD vs. Placebo [3]: −0.365
LOAC, number [4]: 8
OR vs. placebo [4]: 1.633
RD vs. Placebo [4]: 0.122
LOAC, number (baseline IgE <100 IU/mL): 2
OR vs. placebo (baseline IgE <100 IU/mL): 0.412
RD vs. Placebo (baseline IgE <100 IU/mL): −0.220
LOAC, number [5]: 6
OR vs. placebo [5]: 0.744
RD vs. Placebo [5]: −0.053
LOAC, number (baseline IgE ≥100 IU/mL): 10
OR vs. placebo (baseline IgE ≥100 IU/mL): 0.652
RD vs. Placebo (baseline IgE ≥100 IU/mL): −0.092
LOAC, number [6]: 6
OR vs. placebo [6]: 0.604
RD vs. Placebo [6]: −0.124
LOAC, number [7]: 7
OR vs. placebo [7]: 0.700
RD vs. Placebo [7]: −0.088
OR vs. placebo [8]: 0.556
RD vs. Placebo [8]: −0.143
LOAC, number [9]: 7
OR vs. placebo [9]: 0.700
RD vs. Placebo [9]: −0.088
OR vs. placebo [10]: 0.556
RD vs. Placebo [10]: −0.143
LOAC, number [11]: 2
OR vs. placebo [11]: 0.527
RD vs. Placebo [11]: −0.135
LOAC, number [12]: 10
OR vs. placebo [12]: 0.737
RD vs. Placebo [12]: −0.077
OR vs. placebo [13]: 0.231
RD vs. Placebo [13]: −0.197
LOAC, number [14]: 7
OR vs. placebo [14]: 0.951
RD vs. Placebo [14]: −0.013
LOAC, number (low EOS (<0.15) and low FeNO (<25)): 0
LOAC, number (smoking history Former): 3
OR vs. placebo (smoking history Former): 3.000
RD vs. Placebo (smoking history Former): 0.250
LOAC, number (smoking history Never): 9
OR vs. placebo (smoking history Never): 0.474
RD vs. Placebo (smoking history Never): −0.179
LOAC incidence, number of participants [15]: 8
LOAC incidence, percentage [15]: (18.6)
LOAC OR vs. placebo (400 mg TID cohort, Eastern Europe, 95% CI (0.187, 1.368)): 0.506
LOAC incidence, number of participants [16]: 4
LOAC incidence, percentage [16]: (21.1)
LOAC OR vs. placebo (400 mg TID cohort, Latin America, 95% CI (0.166, 3.357)): 0.747
LOAC RD vs. placebo (400 mg TID cohort, Latin America, 95% CI (−0.322, 0.217)): −0.053

From patent publication US20260345619A1 (Principia Biopharma Inc., priority 2023, published 2026)
